The source made the active and inactive calls. The rule behind the calls is not given here.
Test system: GENE-TOX genotoxicity assays, various organisms and cells
Assay: GENE-TOX mutagenicity studies
Settings: for call: Assay Type: In vivo carcinogenicity studies
[1] = Species/Cell Type: Salmonella typhimurium (one or more of the five standard strains: TA98, TA100, TA1535, TA1537, and TA1538), Assay Type: Histidine reverse gene mutation, Ames assay, Assay Code: SAL+, Evaluation Type: Evaluation A (Pre-1980)
[2] = Species/Cell Type: Saccharomyces cerevisiae, Assay Type: Mitotic recombination or gene conversion, Assay Code: YEC+, Evaluation Type: Evaluation A (Pre-1980)
[3] = Species/Cell Type: Saccharomyces cerevisiae, Assay Type: Reverse gene mutation, Assay Code: YER+, Evaluation Type: Evaluation A (Pre-1980)
[4] = Species/Cell Type: Chinese hamster lung (V79) cells, Assay Type: Forward gene mutation at the HPRT or ouabain locus, Assay Code: V79-*, Activation: With metabolic activation, Evaluation Type: Evaluation A (Pre-1980)
[5] = Species/Cell Type: Salmonella typhimurium (one or more of the five standard strains: TA98, TA100, TA1535, TA1537, and TA1538), Assay Type: Histidine reverse gene mutation, Ames assay, Assay Code: SAL+*, Activation: With metabolic activation, Evaluation Type: Evaluation A (Pre-1980)
[6] = Species/Cell Type: Drosophila melanogaster, Assay Type: Sex-linked recessive lethal gene mutation, Assay Code: SRLT, Evaluation Type: Evaluation A (Pre-1980)
[7] = Species/Cell Type: Vicia faba, Assay Type: Chromosome aberrations, Assay Code: VIC+, Evaluation Type: Evaluation A (Pre-1980)
[8] = Species/Cell Type: Drosophila melanogaster, Assay Type: Sex-linked recessive lethal gene mutation, Assay Code: SRL+, Evaluation Type: Evaluation A (Pre-1980)

Compound: Cc1ccc(S(=O)(=O)NCl)cc1
- mutagenic call (Species/Cell Type: Mammalian polychromatic erythrocytes, Assay Type: Micronucleus test, chromosome aberrations, Assay Code: MNTT, Evaluation Type: Evaluation B (Post-1980)): no conclusion

Compound: CC(=O)Nc1ccc2c(c1)Cc1cc(NC(C)=O)ccc1-2
- mutagenic call [1]: active; positive

Compound: CC(=O)Nc1ccc(-c2ccc(NO)cc2)cc1
- mutagenic call (Species/Cell Type: Chinese hamster ovary (CHO) cells, Assay Type: Forward gene mutation at the HPRT locus, Assay Code: CHO+, Evaluation Type: Evaluation B (Post-1980)): active; positive

Compound: CC(=O)ON(C(C)=O)c1ccc(/C=C/c2ccccc2)cc1
- mutagenic call [2]: active; positive
- mutagenic call (Species/Cell Type: Saccharomyces cerevisiae, Assay Type: Mitotic recombination or gene conversion, Assay Code: YEH+, Evaluation Type: Evaluation A (Pre-1980)): active; positive
- mutagenic call [3]: active; positive

Compound: NC(Cc1ccc(F)cc1)C(=O)O (stereo not drawn)
- mutagenic call (Species/Cell Type: Aspergillus nidulans, Assay Type: Aneuploidy, chromosome aberrations, Assay Code: ASN+, Evaluation Type: Evaluation A (Pre-1980)): active; positive
- mutagenic call (Species/Cell Type: Aspergillus nidulans, Assay Type: Mitotic recombination, Assay Code: ASG-, Evaluation Type: Evaluation A (Pre-1980)): inactive; negative
- mutagenic call (Species/Cell Type: Neurospora crassa, Assay Type: Aneuploidy, chromosome aberrations, Assay Code: NEN+, Evaluation Type: Evaluation A (Pre-1980)): active; positive
- mutagenic call (Species/Cell Type: Saccharomyces cerevisiae, Assay Type: Aneuploidy, chromosome aberrations, Assay Code: YEN+, Evaluation Type: Evaluation A (Pre-1980)): active; positive
- mutagenic call (Species/Cell Type: Saccharomyces cerevisiae, Assay Type: Forward gene mutation, Assay Code: YEF+, Evaluation Type: Evaluation A (Pre-1980)): active; positive
- mutagenic call [2]: active; positive
- mutagenic call [3]: active; positive

Compound: O=C(O)[C@H]1O[C@@H](N(O)c2ccc(-c3ccccc3)cc2)[C@H](O)[C@@H](O)[C@@H]1O
- mutagenic call [1]: active; positive

Compound: Cc1c2ccccc2c(C)c2c1ccc1ccc(O)cc12
- mutagenic call [4]: inactive; negative
- call (Species/Cell Type: Nonhuman, Assay Code: CCGT, Evaluation Type: Evaluation A (Pre-1980)): no conclusion

Compound: Nc1cc2c3ccccc3ccc2c2ccccc12
- mutagenic call [5]: active; positive

Compound: O=C(O)CC(O)(CC(=O)O)C(=O)O
- mutagenic call (Species/Cell Type: Mammalian polychromatic erythrocytes, Assay Type: Micronucleus test, chromosome aberrations, Assay Code: MNT+, Evaluation Type: Evaluation B (Post-1980)): active; positive

Compound: Nc1ccc2nc3ccc(N)cc3[n+](-c3ccccc3)c2c1
- mutagenic call [6]: no conclusion

Compound: CCO
- mutagenic call (Species/Cell Type: Arabidopsis species, Assay Type: Gene mutation, Assay Code: ARM-, Evaluation Type: Evaluation A (Pre-1980)): inactive; negative
- mutagenic call (Species/Cell Type: Aspergillus nidulans, Assay Type: Forward gene mutation, Assay Code: ASF-, Evaluation Type: Evaluation A (Pre-1980)): inactive; negative
- mutagenic call (Species/Cell Type: Fischer rat embryo (RLV/1706) cells, Assay Type: Cell transformation, viral enhanced, Assay Code: CTR-, Evaluation Type: Evaluation A (Pre-1980)): inactive; negative
- mutagenic call (Species/Cell Type: Human lymphocytes, Assay Type: Sister-chromatid exchange (SCE) in vitro, Assay Code: SCL+D, Dose Response: With dose response, Evaluation Type: Evaluation B (Post-1980)): active; positive
- mutagenic call (Species/Cell Type: Human lymphocytes, Assay Type: Sister-chromatid exchange (SCE) in vitro, Assay Code: SCL-, Evaluation Type: Evaluation A (Pre-1980)): inactive; negative
- mutagenic call (Species/Cell Type: Human, Assay Type: Sister-chromatid exchange (SCE) in vitro, Assay Code: SC1+D, Dose Response: With dose response, Evaluation Type: Evaluation B (Post-1980)): active; positive
- mutagenic call (Species/Cell Type: Human, Assay Type: Sister-chromatid exchange (SCE) in vitro, Assay Code: SC1-, Evaluation Type: Evaluation A (Pre-1980)): inactive; negative
- mutagenic call (Species/Cell Type: Mammalian polychromatic erythrocytes, Assay Type: Micronucleus test, chromosome aberrations, Assay Code: MNT-, Evaluation Type: Evaluation A (Pre-1980)): inactive; negative
- mutagenic call (Species/Cell Type: Mouse, Sex: Male, Assay Type: Sperm morphology, Assay Code: SPI-, Evaluation Type: Evaluation A (Pre-1980)): inactive; negative
- mutagenic call (Species/Cell Type: Neurospora crassa, Assay Type: Aneuploidy, chromosome aberrations, Assay Code: NEN-, Evaluation Type: Evaluation A (Pre-1980)): inactive; negative
- mutagenic call (Species/Cell Type: Nonhuman, Assay Type: Chromosome aberrations in vitro, Assay Code: CY&-, Evaluation Type: Evaluation A (Pre-1980)): inactive; negative
- call (Species/Cell Type: Nonhuman, Assay Code: CCG-L, Evaluation Type: Evaluation A (Pre-1980)): inactive; negative
- mutagenic call (Species/Cell Type: Nonhuman, Assay Type: Sister-chromatid exchange (SCE) in vitro, Assay Code: SC2+D, Dose Response: With dose response, Evaluation Type: Evaluation B (Post-1980)): active; positive
- mutagenic call (Species/Cell Type: Nonhuman, Assay Type: Sister-chromatid exchange (SCE) in vitro, Assay Code: SC2-, Evaluation Type: Evaluation A (Pre-1980)): inactive; negative
- mutagenic call (Species/Cell Type: Nonhuman, Assay Type: Sister-chromatid exchange (SCE) in vivo, Assay Code: SC3+, Evaluation Type: Evaluation B (Post-1980)): active; positive
- mutagenic call (Species/Cell Type: Rodents, Sex: Male, Assay Type: Dominant lethal test, Assay Code: DLT+, Evaluation Type: Evaluation A (Pre-1980)): active; positive
- mutagenic call (Species/Cell Type: Salmonella typhimurium (one or more of the five standard strains: TA98, TA100, TA1535, TA1537, and TA1538), Assay Type: Histidine reverse gene mutation, Ames assay, Assay Code: SAL-, Evaluation Type: Evaluation A (Pre-1980)): inactive; negative
- mutagenic call (Species/Cell Type: Syrian hamster embryo (SHE) cells, Assay Type: Cell transformation, clonal assay, Assay Code: CTC-, Evaluation Type: Evaluation A (Pre-1980)): inactive; negative
- mutagenic call (Species/Cell Type: Tradescantia species, Assay Type: Gene mutation, Assay Code: TRM+D, Dose Response: With dose response, Evaluation Type: Evaluation A (Pre-1980)): active; positive
- mutagenic call [7]: active; positive

Compound: CCOC(=O)COc1ccc(Cl)cc1CCl (tested in a mixture with another compound)
- mutagenic call (Species/Cell Type: Saccharomyces cerevisiae, Assay Type: Reverse gene mutation, Assay Code: YERT, Evaluation Type: Evaluation A (Pre-1980)): no conclusion

Compound: CNC(=O)Oc1ccccc1Cl
- mutagenic call (Species/Cell Type: Bacillus subtilis (H17 vs M45), Assay Type: Rec-assay, spot test, DNA effects (bacterial DNA repair), Assay Code: REWT, Evaluation Type: Evaluation A (Pre-1980)): no conclusion
- mutagenic call (Species/Cell Type: Bacillus subtilis (H17 vs M45T), Assay Type: Rec-assay, spot test, DNA effects (bacterial DNA repair), Assay Code: REX-, Evaluation Type: Evaluation A (Pre-1980)): inactive; negative
- mutagenic call (Species/Cell Type: Escherichia coli WP2, Assay Type: Tryptophan reverse gene mutation, Assay Code: WP2-, Evaluation Type: Evaluation A (Pre-1980)): inactive; negative

Compound: [O-]/[N+](=N\O)c1ccccc1
- call (Species/Cell Type: Nonhuman, Assay Code: CCG+, Evaluation Type: Evaluation A (Pre-1980)): active; positive
- mutagenic call [7]: active; positive

Compound: Cc1c2c(c(CO)c3c1ccc1ccccc13)C=C[C@H](O)[C@H]2O
- mutagenic call [4]: inactive; negative

Compound: CC(F)F
- mutagenic call [6]: no conclusion

Compound: CS(=O)(=O)OCC#CCOS(C)(=O)=O
- mutagenic call [8]: active; positive

Compound: O=C(OCC1=CCN2CC[C@@H](OC(=O)c3ccc(Cl)cc3)[C@@H]12)c1ccc(Cl)cc1
- mutagenic call (Species/Cell Type: Allium cepa, Assay Type: Chromosome aberrations, Assay Code: ALC+, Evaluation Type: Evaluation A (Pre-1980)): active; positive

Compound: CN(Cc1ccccc1)N=O
- mutagenic call (Species/Cell Type: Arabidopsis species, Assay Type: Gene mutation, Assay Code: ARM+D, Dose Response: With dose response, Evaluation Type: Evaluation A (Pre-1980)): active; positive
- mutagenic call [8]: active; positive
- mutagenic call (Species/Cell Type: Nonhuman, Assay Type: Sister-chromatid exchange (SCE) in vitro, Assay Code: SC2+, Evaluation Type: Evaluation B (Post-1980)): active; positive
- mutagenic call [5]: active; positive
- mutagenic call (Species/Cell Type: Salmonella typhimurium, Assay Type: Forward and reverse gene mutation, host-mediated assay, Assay Code: HMA+, Evaluation Type: Evaluation A (Pre-1980)): active; positive

Compound: [CH3][Hg+]
- mutagenic call (Species/Cell Type: Allium cepa, Assay Type: Chromosome aberrations, Assay Code: ALC+D, Dose Response: With dose response, Evaluation Type: Evaluation A (Pre-1980)): active; positive
- mutagenic call (Species/Cell Type: Drosophila melanogaster, Assay Type: Aneuploidy, sex chromosome gain, chromosome aberrations, Assay Code: DAG+M+F, Evaluation Type: Evaluation A (Pre-1980)): active; positive
- mutagenic call (Species/Cell Type: Drosophila melanogaster, Assay Type: Aneuploidy, whole sex chromosome loss, chromosome aberrations, Assay Code: DAC+M+F, Evaluation Type: Evaluation A (Pre-1980)): active; positive

Compound: CCC(C)I (stereo not drawn)
- mutagenic call (Species/Cell Type: Escherichia coli polA (W3119 vs P3478), Assay Type: Rec-assay, DNA effects (bacterial DNA repair), Assay Code: RE1+, Evaluation Type: Evaluation A (Pre-1980)): active; positive

From PubChem BioAssay AID1259408 (Genetic Toxicology Data Bank (GENE-TOX), 2018)
